The values that follow come from US10828317B2, “Method of treating bacterial infections” (priority 2016, dated 2020).

In one experiment the test system is P. mirabilis ST19 EN0445. The experiment in a line: MIC. The experiment is classed as cell-based, Proteus mirabilis. The following applies: Proteus mirabilis, ST19EN0445, combination didanosine+trimethoprim+uridine, Table 10; read-out: MIC.
The next experiment deals with S. aureus EN008. The experiment in a line: MIC, Gram-positive control. The experiment is classed as cell-based, Staphylococcus aureus. The following applies: Staphylococcus aureus, EN008, combination didanosine+trimethoprim+uridine, Table 10; read-out: MIC.
For a further experiment, the system named is P. aeruginosa EN0422. The experiment in a line: MIC. The class given is cell-based, Pseudomonas aeruginosa. The following applies: Pseudomonas aeruginosa, EN0422, combination didanosine+trimethoprim+uridine, Table 10; read-out: MIC.
In a further experiment the test system is E. coli EN0136. The experiment in a line: MIC, ESBL (CTX-M-2). The class given is cell-based. The settings on record: Escherichia coli, EN0136, combination didanosine+trimethoprim+uridine, Table 20; read-out: MIC.
The subject of the next experiment is K. pneumoniae EN006. The experiment in a line: MIC, WT (EN006 = EN0006, ATCC 13883). The class given is cell-based, Klebsiella pneumoniae.
Another experiment concerns E. coli EN012. The experiment in a line: MIC, WT. The following applies: Escherichia coli, EN012, combination didanosine+trimethoprim+uridine, Table 10; read-out: MIC. The class given is cell-based, Escherichia coli.
In the next experiment the test system is S. epidermidis EN0456. The experiment in a line: MIC. The experiment is classed as cell-based, Staphylococcus epidermidis. The following applies: Staphylococcus epidermidis, EN0456, combination didanosine+trimethoprim+uridine, Table 10; read-out: MIC.
The next experiment relates to P. aeruginosa EN0459. The experiment in a line: MIC. The following applies: Pseudomonas aeruginosa, EN0459, combination didanosine+trimethoprim+uridine, Table 10; read-out: MIC. The class given is cell-based, Pseudomonas aeruginosa.
For the next experiment, the system named is E. coli EN0235. The experiment in a line: microbe, parasite or virus in culture. The settings on record: Escherichia coli, EN0235, combination didanosine+trimethoprim+uridine, Table 20. The class given is cell-based.
The next experiment deals with A. baumannii EN016. The experiment in a line: MIC, WT. The class given is cell-based, Acinetobacter baumannii. The following applies: Acinetobacter baumannii, EN016, combination didanosine+trimethoprim+uridine, Table 10; read-out: MIC.
The next experiment concerns P. aeruginosa EN0460. The experiment in a line: MIC. The class given is cell-based, Pseudomonas aeruginosa. The settings on record: Pseudomonas aeruginosa, EN0460, combination didanosine+trimethoprim+uridine, Table 10; read-out: MIC.
In a further experiment the test system is K. oxytoca EN0392. The experiment in a line: MIC. The class given is cell-based. The settings on record: Klebsiella oxytoca, EN0392, combination didanosine+trimethoprim+uridine, Table 10.
Another experiment relates to Citrobacter sp. EN0465. The experiment in a line: MIC. The experiment is classed as cell-based. The settings on record: Citrobacter, SP.EN0465, combination didanosine+trimethoprim+uridine, Table 10; read-out: MIC.
The test system of a further experiment is E. coli EN001. The experiment in a line: MIC, WT (EN001 = EN0001, ATCC 25922). The settings on record: combination didanosine+trimethoprim+uridine, Table 20. The experiment is classed as cell-based, Escherichia coli.
Experiment [1] has as its system A. pittii or A. nosocomialis EN0180. The experiment in a line: MIC. The experiment is classed as cell-based, Acinetobacter pittii or nosocomialis. The settings on record: combination didanosine+trimethoprim+uridine, Table 10; read-out: MIC.
Another experiment relates to S. typhimurium EN0466. The experiment in a line: MIC. The following applies: Salmonella enterica, combination didanosine+trimethoprim+uridine, Table 10. The experiment is classed as cell-based.
Another experiment has as its system P. aeruginosa EN014. The experiment in a line: MIC, WT. The class given is cell-based, Pseudomonas aeruginosa. The following applies: Pseudomonas aeruginosa, EN014, combination didanosine+trimethoprim+uridine, Table 10; read-out: MIC.
The subject of another experiment is P. aeruginosa EN004. The experiment in a line: MIC, WT (EN004 = EN0004). The class given is cell-based, Pseudomonas aeruginosa.
Another experiment relates to K. pneumoniae EN0463. The experiment in a line: MIC. The following applies: Klebsiella pneumoniae, EN0463, combination didanosine+trimethoprim+uridine, Table 10; read-out: MIC. The experiment is classed as cell-based, Klebsiella pneumoniae.
In another experiment the test system is E. aerogenes EN0461. The experiment in a line: MIC. The class given is cell-based, Enterobacter aerogenes. The settings on record: Klebsiella aerogenes, EN0461, combination didanosine+trimethoprim+uridine, Table 10; read-out: MIC.
The next experiment concerns A. baumannii EN007. The experiment in a line: MIC, WT (EN007 = EN0007). The experiment is classed as cell-based, Acinetobacter baumannii.
The subject of the next experiment is S. aureus V55. The experiment in a line: MIC. The settings on record: Staphylococcus aureus, Mupirocin resistant isolate, read-out: MIC (resistance pattern). The experiment is classed as cell-based.
In another experiment the test system is S. aureus V308. The experiment in a line: MIC. The experiment is classed as cell-based. The following applies: Staphylococcus aureus, V308; Mupirocin resistant isolate; read-out: MIC (resistance pattern).
The subject of another experiment is S. aureus V321. The experiment in a line: MIC. The experiment is classed as cell-based. The settings on record: Staphylococcus aureus, Mupirocin resistant isolate, read-out: MIC (resistance pattern).
A further experiment has as its system S. aureus V86. The experiment in a line: MIC. The class given is cell-based. The following applies: Staphylococcus aureus, V86; Mupirocin resistant isolate; read-out: MIC (resistance pattern).
The mark [2] stands for this setting: combination didanosine+trimethoprim+uridine, Table 20.

Where two headings read alike, the source gives them in different places.

`O=c1[nH]cnc2c1ncn2[C@H]1CC[C@@H](CO)O1` [Didanosine, didanosine]: the MIC with P. mirabilis ST19 EN0445 was 1 µg/mL; in the experiment with S. aureus EN008, 0.5 µg/mL; with P. aeruginosa EN0422, over 4 µg/mL; in the experiment on E. coli EN0136, over 4 µg/mL; in the experiment with K. pneumoniae EN006 (Klebsiella pneumoniae, EN006, combination didanosine+trimethoprim+uridine, Table 10, read-out: MIC), 0.5 µg/mL; in the experiment on K. pneumoniae EN006 (setting [2]), 0.5 µg/mL. For the same molecule, the MIC was 0.064 µg/mL with E. coli EN012; 0.064 µg/mL in the experiment on S. epidermidis EN0456; over 4 µg/mL in the experiment on P. aeruginosa EN0459; 0.125 µg/mL in the experiment on E. coli EN0235; over 4 µg/mL in the experiment with A. baumannii EN016; over 4 µg/mL with P. aeruginosa EN0460. Besides, the MIC in the experiment with K. oxytoca EN0392 is 0.25 µg/mL; in the experiment with Citrobacter sp. EN0465 it was over 4 µg/mL; in the experiment on E. coli EN001, 0.25 µg/mL; in [1] it was over 4 µg/mL; with S. typhimurium EN0466, 0.25 µg/mL; in the experiment with P. aeruginosa EN014, over 4 µg/mL. The MIC was over 4 µg/mL in the experiment with P. aeruginosa EN004 (Pseudomonas aeruginosa, EN004, combination didanosine+trimethoprim+uridine, Table 10, read-out: MIC); over 4 µg/mL in the experiment on P. aeruginosa EN004 (setting [2]); 0.25 µg/mL with K. pneumoniae EN0463; 0.5 µg/mL in the experiment with E. aerogenes EN0461; over 4 µg/mL in the experiment on A. baumannii EN007 (Acinetobacter baumannii, EN007, combination didanosine+trimethoprim+uridine, Table 10, read-out: MIC); over 4 µg/mL with A. baumannii EN007 (setting [2]).
In the case of `C/C(=C\C(=O)OCCCCCCCCC(=O)O)C[C@@H]1OC[C@H](C[C@@H]2O[C@H]2[C@@H](C)[C@H](C)O)[C@@H](O)[C@H]1O` [Mupirocin], the MIC in the experiment with S. aureus V55, in the experiment on S. aureus V308, in the experiment with S. aureus V321 and in the experiment with S. aureus V86 was over 256 µg/mL each time.
